5 compounds from article PMC11638965, “Leveraging Dual-Ligase Recruitment to Enhance Protein Degradation via a Heterotrivalent Proteolysis Targeting Chimera” (Journal of the American Chemical Society, 2024) can be followed below.

Molecules are shown by their SMILES. Entries after “also recorded” stand apart in the source; their conditions may differ. Like-named read-outs stand apart in the source and are kept apart here.

Broadly, the IC50 is the concentration at which inhibition is half-maximal.

The target of assay [1] is CRBN (Homo sapiens, UniProt Q96SW2). The assay is described as follows: NanoBRET lytic and live cell target engagement assay. Details: host or cells: HEK293, transient. Type of assay: binding. The settings on record: for IC50: HEK293 cells with NanoLuc-CRBN, CRBN fluorescent tracer. As for the experimental part:
CRBN (N2910, Promega) and VHL (N2930, Promega) NanoBRET target engagement assays were performed according to manufacturer’s instructions. Transfection complexes were prepared using 1 mL Opti-MEM, 30 μL FuGENE HD, and either 9 μg/mL DDB1 Expression Vector and 1 μg/mL NanoLuc-CRBN fusion vector, or 9 μg/mL Transfection Carrier DNA and 1 μg/mL VHL-NanoLuc fusion vector. Transfection complexes were allowed to form for 20 min at room temperature, then were added to 20 mL of HEK293 cells at density of 200,000 cells/mL. Transfected HEK293 cells were plated in a T75 flask and allowed to express protein overnight. The next day, 85 μL of transfected cells (at 200,000 cells/mL) were replated in white nonbinding 96-well plates for live and lytic target engagement measurements. For live mode, a 100x solution of NanoBRET tracer was prepared using 100% DMSO (50 μM for CRBN live-cell, 100 μM for VHL live-cell). 100x tracer was used to prepare 20× tracer using tracer dilution buffer. PROTACs or test compounds were prepared at 10x final concentrations in Opti-MEM. Five μL of the prepared tracer was then dispensed to each well and the plate was mixed on an orbital shaker at 300 rpm for 15 s. Ten μL of each 10x PROTAC dilution was added to the cells and the plate was mixed again before being incubated at a 37 °C, 5% CO2 incubator for 2 or 5 h (as indicated in each figure). After incubation, a 50 μL of a 3X substrate solution (containing 30 μL NanoBRET Nano-Glo Substrate, 10 μL Extracellular NanoLuc inhibitor, and 4960 μL of Opti-MEM) was added to each well. Plates were incubated for 2–3 min at room temperature, then donor emission (450 nm) and acceptor emission (at 610 nm) values were read using a GloMax Discover. For lytic mode, the following changes were made. […] Plates were incubated in darkness for 5 min after digitonin addition to allow for permeabilization. 50 μL of 3X substrate (30 μL NanoBRET Nano-Glo substrate and 4970 μL Opti-MEM) was added to each well and plates were incubated for 1 min at room temperature before being read on a GloMax Discover as above.
A general note: In BRET a luciferase serves as donor, and the signal depends on an acceptor being close.

In assay [2] the test system is RKO CRBN/VHL dKO cells. The assay is described as follows: Cell viability assay (CellTiter-Glo). The note with it: read-out: EC50 RKO CRBN/VHL dKO. Type of assay: cell-based, human. As for the experimental part:
(§1) RKO WT, VHL KO, CRBN KO and CRBN/VHL dKO cells were cultured in Dulbecco’s modified Eagle’s medium supplemented with 10% FCS and 1% penicillin–streptomycin. RKO CRBN KO and VHL KO were generated previously.[45] RKO CRBN/VHL dKO cells were generated by transiently expressing pSpCas9(BB)-2A-GFP (PX458) (Addgene 48138) loaded with a short guide RNA (sgRNA) targeting VHL (Fwd: […], Rev: […]) in RKO CRBN KO cells. Clones were single cell seeded and checked for VHL and CRBN double deletion via Western blot or PCR on genomic DNA (gDNA).
(§2) Cells were seeded in 96-well plates at a cell density of 3750 cells per well and treated for 3 days with DMSO or drug at ten √10 serial diluted concentrations. Starting concentration for all drugs was 10 μM, and each treatment was performed in biological triplicates. Cell viability was assessed using the CellTiter-Glo assay (CellTiter-Glo Luminescent Cell Viability Assay, Promega G7573) according to manufacturer instructions. Luminescence signal was measured on a Multilabel Plate Reader Platform Victor X3 model 2030 (PerkinElmer). Survival curves and EC50 values were determined using GraphPad Prism v.10.0.3 by fitting a nonlinear regression to the log10-transformed drug concentration and the relative viability after normalization of each data point to the mean luminescence of the lowest drug concentration.
In general terms: ATP-based viability assays read luminescence as a measure of living cells.

Assay [3] deals with RKO CRBN KO cells. The assay is described as follows: Cell viability assay (CellTiter-Glo). Type of assay: cell-based, human. The note with it: 500 pM to 10 μM, 3 days (Figure 10, Table S6).
Assay [4] relates to RKO VHL KO cells. The assay is described as follows: Cell viability assay (CellTiter-Glo). Type of assay: cell-based, human. As for the experimental part:
as §1, §2

[5] abbreviates: live cells 2 h, read-out: IC50 (Live Cell), Target: CRBN.
The mark [6] stands for this setting: lysed with digitonin, read-out: IC50 (Lytic Cell), Target: CRBN.
Setting [7] is: Homo sapiens, 72 h, 316 pM to 10 μM, 3 days, n = 3 (Figures 5 and 8C, Table S5).
The mark [8] stands for this setting: Homo sapiens, 72 h, 500 pM to 10 μM, 3 days (Figure 10, Table S6).

Sequence of CRBN (Q96SW2 whole entry, the tested form may be a part): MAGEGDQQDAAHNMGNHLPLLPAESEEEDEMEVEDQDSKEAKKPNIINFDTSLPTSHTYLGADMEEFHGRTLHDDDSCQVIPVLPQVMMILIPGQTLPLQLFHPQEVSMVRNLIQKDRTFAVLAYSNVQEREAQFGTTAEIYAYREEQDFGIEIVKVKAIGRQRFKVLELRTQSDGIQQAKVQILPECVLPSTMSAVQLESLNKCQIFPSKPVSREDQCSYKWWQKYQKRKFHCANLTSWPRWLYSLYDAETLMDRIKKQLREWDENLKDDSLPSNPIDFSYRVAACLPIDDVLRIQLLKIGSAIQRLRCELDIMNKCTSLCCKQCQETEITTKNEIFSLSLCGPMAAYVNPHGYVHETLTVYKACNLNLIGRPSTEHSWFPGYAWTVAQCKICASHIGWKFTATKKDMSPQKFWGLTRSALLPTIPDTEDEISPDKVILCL
Sequence of CRBN (Q16531 whole entry partner, the tested form may be a part): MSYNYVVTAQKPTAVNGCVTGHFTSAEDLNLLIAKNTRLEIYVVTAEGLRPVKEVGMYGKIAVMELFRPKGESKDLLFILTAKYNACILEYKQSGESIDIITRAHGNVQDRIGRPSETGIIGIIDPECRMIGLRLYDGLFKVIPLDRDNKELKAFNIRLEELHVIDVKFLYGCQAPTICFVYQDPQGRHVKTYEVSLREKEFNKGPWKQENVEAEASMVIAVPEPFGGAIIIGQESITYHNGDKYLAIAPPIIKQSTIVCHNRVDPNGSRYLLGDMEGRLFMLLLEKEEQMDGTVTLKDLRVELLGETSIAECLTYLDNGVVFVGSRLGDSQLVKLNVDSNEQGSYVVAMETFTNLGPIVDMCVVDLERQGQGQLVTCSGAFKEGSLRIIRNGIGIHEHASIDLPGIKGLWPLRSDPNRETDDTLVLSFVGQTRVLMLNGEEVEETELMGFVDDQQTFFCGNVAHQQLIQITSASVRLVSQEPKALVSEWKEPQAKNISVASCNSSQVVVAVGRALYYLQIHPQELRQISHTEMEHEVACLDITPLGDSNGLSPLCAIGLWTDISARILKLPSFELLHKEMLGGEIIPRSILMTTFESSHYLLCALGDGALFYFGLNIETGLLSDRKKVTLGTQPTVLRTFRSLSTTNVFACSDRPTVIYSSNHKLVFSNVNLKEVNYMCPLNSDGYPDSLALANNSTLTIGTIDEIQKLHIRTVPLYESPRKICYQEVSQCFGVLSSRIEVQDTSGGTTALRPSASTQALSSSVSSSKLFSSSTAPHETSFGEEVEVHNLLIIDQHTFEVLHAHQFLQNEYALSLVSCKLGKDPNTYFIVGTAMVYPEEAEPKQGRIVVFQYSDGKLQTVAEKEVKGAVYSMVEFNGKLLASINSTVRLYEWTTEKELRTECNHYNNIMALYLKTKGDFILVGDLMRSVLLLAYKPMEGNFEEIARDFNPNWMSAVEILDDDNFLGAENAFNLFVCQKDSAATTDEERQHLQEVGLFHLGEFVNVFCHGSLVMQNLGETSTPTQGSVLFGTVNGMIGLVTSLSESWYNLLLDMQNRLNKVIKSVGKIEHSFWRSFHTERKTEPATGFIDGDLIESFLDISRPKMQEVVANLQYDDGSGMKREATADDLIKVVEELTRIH

Consider `Cc1ncsc1-c1ccc(CNC(=O)[C@@H]2C[C@@H](O)CN2C(=O)[C@@H](NC(=O)COCC(C)(COCCOCCOCCNc2cc3c(cc2F)C(=O)N(C2CCC(=O)NC2=O)C3=O)COCCOCCOCCOC(=O)C[C@@H]2N=C(c3ccc(Cl)cc3)c3c(sc(C)c3C)-n3c(C)nnc32)C(C)(C)C)cc1` (mixture of isomers) [AB3063 (26), (17S)-11-((2-(2-(2-((2-(2,6-dioxopiperidin-3-yl)-6-fluoro-1,3-dioxoisoindolin-5-yl)amino)ethoxy)ethoxy)ethoxy)methyl)-17-((2S,4R)-4-hydroxy-2-((4-(4-methylthiazol-5-yl)benzyl)carbamoyl)pyrrolidine-1-carbonyl)-11,18,18-trimethyl-15-oxo-3,6,9,13-tetraoxa-16-azanonadecyl 2-((S)-4-(4-chlorophenyl)-2,3,9-trimethyl-6H-thieno[3,2-f][1,2,4]triazolo[4,3-a][1,4]diazepin-6-yl)acetate], for which the IC50 in assay [1] (setting [5]) worked out at 1560 nM; in assay [1] (setting [6]), 412 nM. For the same compound, the EC50 in assay [2] (setting [7]) is 2240 nM.
For `Cc1ncsc1-c1ccc([C@H](C)NC(=O)[C@@H]2C[C@@H](O)CN2C(=O)[C@@H](NC(=O)COCC(C)(COCCOCCOCCNc2cc3c(cc2F)C(=O)N(C2CCC(=O)NC2=O)C3=O)COCCOCCOCCOC(=O)C[C@@H]2N=C(c3ccc(Cl)cc3)c3c(sc(C)c3C)-n3c(C)nnc32)C(C)(C)C)cc1` (mixture of isomers) [AB3067 (27), (17S)-11-((2-(2-(2-((2-(2,6-dioxopiperidin-3-yl)-6-fluoro-1,3-dioxoisoindolin-5-yl)amino)ethoxy)ethoxy)ethoxy)methyl)-17-((2S,4R)-4-hydroxy-2-(((S)-1-(4-(4-methylthiazol-5-yl)phenyl)ethyl)carbamoyl)pyrrolidine-1-carbonyl)-11,18,18-trimethyl-15-oxo-3,6,9,13-tetraoxa-16-azanonadecyl 2-((S)-4-(4-chlorophenyl)-2,3,9-trimethyl-6H-thieno[3,2-f][1,2,4]triazolo[4,3-a][1,4]diazepin-6-yl)acetate], the “fold stronger engagement of CRBN over 26, live cell format” value in assay [1] (27 vs 26) was 2.5 fold. In addition, the figures for the IC50 in assay [1] (setting [5]) and in assay [1] (setting [6]) were 624 nM and 190 nM, respectively. Further, the EC50 in assay [3] (Homo sapiens, 72 h) was 82 nM; in assay [4] (316 pM to 10 μM, 3 days, n = 3 (Figures 5 and 8C, Table S5), listed as 27), 180 nM; in assay [4] (setting [7]), 133 nM; in assay [4] (setting [8]), 110 nM; in assay [2] (setting [7]) it was 988 nM; in assay [2] (setting [8]) it was 818 nM.
As for `Cc1ncsc1-c1ccc(CNC(=O)[C@@H]2C[C@@H](O)CN2C(=O)[C@@H](NC(=O)COCC(COCCOCCOCCNc2cc3c(cc2F)C(=O)N(C2CCC(=O)NC2=O)C3=O)(COCCOCCOCCOC(=O)C[C@@H]2N=C(c3ccc(Cl)cc3)c3c(sc(C)c3C)-n3c(C)nnc32)COCCOCCOCCOC(=O)C[C@@H]2N=C(c3ccc(Cl)cc3)c3c(sc(C)c3C)-n3c(C)nnc32)C(C)(C)C)cc1` (mixture of isomers) [AB3124 (86)], the EC50 in assay [4] (316 pM to 10 μM, 3 days, n = 3 (Figures 5 and 8C, Table S5), listed as 86) was found to be 34 nM; in assay [4] (setting [7]), 62 nM; in assay [2] (setting [7]), 16 nM.
Take `Cc1ncsc1-c1ccc([C@H](C)NC(=O)[C@@H]2C[C@H](O)CN2C(=O)[C@@H](NC(=O)COCC(C)(COCCOCCOCCNc2cc3c(cc2F)C(=O)N(C2CCC(=O)NC2=O)C3=O)COCCOCCOCCOC(=O)C[C@@H]2N=C(c3ccc(Cl)cc3)c3c(sc(C)c3C)-n3c(C)nnc32)C(C)(C)C)cc1` (mixture of isomers) [cis-AB3067 (94), (17S)-11-((2-(2-(2-((2-(2,6-dioxopiperidin-3-yl)-6-fluoro-1,3-dioxoisoindolin-5-yl)amino)ethoxy)ethoxy)ethoxy)methyl)-17-((2S,4S)-4-hydroxy-2-(((S)-1-(4-(4-methylthiazol-5-yl)phenyl)ethyl)carbamoyl)pyrrolidine-1-carbonyl)-11,18,18-trimethyl-15-oxo-3,6,9,13-tetraoxa-16-azanonadecyl 2-((S)-4-(4-chlorophenyl)-2,3,9-trimethyl-6H-thieno[3,2-f][1,2,4]triazolo[4,3-a][1,4]diazepin-6-yl)acetate]: the “CRBN engagement compared to 27 (in words)” value in assay [1] (lytic, live cell 2 h and 5 h (Figure S6), listed as 94) was “slight improvement in binding to CRBN after 2 h; also recorded: even greater binding to CRBN after 5 h compared to 27”. For the same compound, the EC50 in assay [3] (listed as 94) is ~820 nM; in assay [3] (Homo sapiens, 72 h) it was 832 nM; in assay [4] (setting [8]), 48 nM; in assay [2] (500 pM to 10 μM, 3 days (Figure 10, Table S6), listed as 94) it was ~820 nM; in assay [2] (setting [8]), 804 nM.
Consider `Cc1ncsc1-c1ccc([C@H](C)NC(=O)[C@@H]2C[C@H](O)CN2C(=O)[C@@H](NC(=O)COCC(C)(COCCOCCOCCNc2cc3c(cc2F)C(=O)N(C2CCC(=O)N(C)C2=O)C3=O)COCCOCCOCCOC(=O)C[C@@H]2N=C(c3ccc(Cl)cc3)c3c(sc(C)c3C)-n3c(C)nnc32)C(C)(C)C)cc1` (mixture of isomers) [neg-cis-AB3067 (95), (17S)-11-((2-(2-(2-((6-fluoro-2-(1-methyl-2,6-dioxopiperidin-3-yl)-1,3-dioxoisoindolin-5-yl)amino)ethoxy)ethoxy)ethoxy)methyl)-17-((2S,4S)-4-hydroxy-2-(((S)-1-(4-(4-methylthiazol-5-yl)phenyl)ethyl)carbamoyl)pyrrolidine-1-carbonyl)-11,18,18-trimethyl-15-oxo-3,6,9,13-tetraoxa-16-azanonadecyl 2-((S)-4-(4-chlorophenyl)-2,3,9-trimethyl-6H-thieno[3,2-f][1,2,4]triazolo[4,3-a][1,4]diazepin-6-yl)acetate], for which the EC50 in assay [3] (Homo sapiens, 72 h) was 586 nM; in assay [4] (setting [8]), 522 nM; in assay [2] (setting [8]) it was 657 nM.
